Data set [1] has as its target HIV-1 RT wild-type enzyme (Human immunodeficiency virus type 1 group M subtype B (isolate HXB2) (HIV-1), UniProt P04585). Kind of data set: HIV-1 reverse transcriptase inhibitory activity (RT polymerase assay). Format: biochemical. The settings on record: HIV-1 RT wild-type enzyme 83 pM; RNA-dependent DNA polymerase activity; read-out: IC50. A digest of the protocol:
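Biotinylated DNA primer annealed to HCV-derived RNA template (16.6 nM final hybrid), with 2 μM dATP/dGTP/dCTP and 66.6 nM Ru-dUTP, after 30 min compound–enzyme preincubation at room temperature; polymerization 90 min at 37 °C, EDTA quench. Product captured on avidin plates, electrochemiluminescence read; IC50 by four-parameter logistic fit versus DMSO and 1 μM efavirenz controls.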

Data set [2] can be described thus: Determination of PK parameters in dog after intravenous bolus. The settings on record: male beagle dog, plasma, 50% DMSO in PEG400, read-out: Dog t1/2 (terminal half-life) (converted). The class given is in vivo, Male beagle dogs. The protocol: Determination of PK Parameters Male beagle dogs (weight 9-13 kg) were fasted overnight and housed individually. Water was provided ad lib throughout the study. Food was allowed approximately 4 hr post dose. […] The formulations were given intravenous as a bolus injection into the cephalic vein. The vein used for the dosing will not be used for the blood sample collection for the first 4 hr post-dose). […] EDTA was used as anticoagulant and approximately 0.5 mL aliquots of blood samples were collected at each time point. […] Test compound concentration in dog plasma was determined using a LC/MS/MS method. Typically the LC/MS/MS system consisted of an ACQUITY UPLC system with autosampler system refrigerated at 4° C. during analysis, and an API 4000 mass spectrometer. […] The mobile phase consisting of a solvent A (0.1% formic acid in water/acetonitrile (95/5)) and solvent B (0.1% formic acid in acetonitrile/water (95/5)) was delivered at a flow rate of 600 μL/min. […] Mass spectrometric detection of the analytes is accomplished using either an ESI or APCI interface operated in the positive or negative ionization mode. Analyte response is measured by multiple reaction monitoring (MRM) of transitions unique to each compound […]

As a reminder, the IC50 is the point on the concentration scale where inhibition reaches its midpoint. Take `N#Cc1cc(Cl)cc(Oc2c(C(F)(F)F)ncn(Cc3cc(C(F)(F)F)c(=O)[nH]n3)c2=O)c1` [Example 6, 3-chloro-5-((6-oxo-1-((6-oxo-5-(trifluoromethyl)-1,6-dihydropyridazin-3-yl)methyl)-4-(trifluoromethyl)-1,6-dihydropyrimidin-5-yl)oxy)benzonitrile]: the half-maximal inhibitory concentration (IC50) in data set [1] was determined as 8 nM. Further, the half-life in data set [2] is 72 h.
As to `N#Cc1cc(Cl)cc(Oc2c(C(F)(F)F)ncn(Cc3ccc(=O)[nH]n3)c2=O)c1` [Example 7, 3-chloro-5-((6-oxo-1-((6-oxo-1,6-dihydropyridazin-3-yl)methyl)-4-(trifluoromethyl)-1,6-dihydropyrimidin-5-yl)oxy)benzonitrile], the IC50 in data set [1] was 8 nM. Also, the half-life in data set [2] was 28 h.
For `N#Cc1cc(Cl)cc(Oc2c(C(F)(F)F)ncn(Cc3cc(-c4ccc(C#N)c(F)c4)c(=O)[nH]n3)c2=O)c1` [Example 68, 4-(6-((5-(3-chloro-5-cyanophenoxy)-6-oxo-4-(trifluoromethyl)pyrimidin-1(6H)-yl)methyl)-3-oxo-2,3-dihydropyridazin-4-yl)-2-fluorobenzonitrile], in that order: 7 nM and 25 h.
For the compound `N#Cc1cc(Cl)cc(Oc2c(C(F)(F)F)ncn(Cc3cc(-c4ccc(F)cc4)c(=O)[nH]n3)c2=O)c1` [Example 77, 3-chloro-5-((1-((5-(4-fluorophenyl)-6-oxo-1,6-dihydropyridazin-3-yl)methyl)-6-oxo-4-(trifluoromethyl)-1,6-dihydropyrimidin-5-yl)oxy)benzonitrile], the IC50 in data set [1] turned out to be 4 nM. Moreover, the half-life in data set [2] is 79 h.
For `CC(F)(F)c1cc(Cn2cnc(C(F)(F)F)c(Oc3cc(Cl)cc(C#N)c3)c2=O)n[nH]c1=O` [Example 104, 3-chloro-5-((1-((5-(1,1-difluoroethyl)-6-oxo-1,6-dihydropyridazin-3-yl)methyl)-6-oxo-4-(trifluoromethyl)-1,6-dihydropyrimidin-5-yl)oxy)benzonitrile], in that order: 15 nM and 24 h.
For `N#Cc1cc(Cl)cc(Oc2c(C(F)(F)F)ncn(Cc3cc(-c4ccccc4)n[nH]c3=O)c2=O)c1` [Example 110, 3-chloro-5-((6-oxo-1-((3-oxo-6-phenyl-2,3-dihydropyridazin-4-yl)methyl)-4-(trifluoromethyl)-1,6-dihydropyrimidin-5-yl)oxy)benzonitrile], in that order: 3 nM and 20 h.
Consider `N#Cc1cc(Cl)cc(Oc2c(C(F)(F)F)ncn(Cc3cc(C4CC4)n[nH]c3=O)c2=O)c1` [Example 117, 3-chloro-5-((1-((6-cyclopropyl-3-oxo-2,3-dihydropyridazin-4-yl)methyl)-6-oxo-4-(trifluoromethyl)-1,6-dihydropyrimidin-5-yl)oxy)benzonitrile], for which, in data set [1], the IC50 came out at 6 nM. Further, the half-life in data set [2] is 30 h.
As to `N#Cc1cc(Cl)cc(Oc2c(C(F)(F)F)ncn(Cc3cc(C(F)F)n[nH]c3=O)c2=O)c1` [Example 128, 3-chloro-5-((1-((6-(difluoromethyl)-3-oxo-2,3-dihydropyridazin-4-yl)methyl)-6-oxo-4-(trifluoromethyl)-1,6-dihydropyrimidin-5-yl)oxy)benzonitrile], the IC50 in data set [1] worked out at 4 nM. Further, in data set [2], the half-life was 81 h.
As to `Cc1c(C#N)cc(F)cc1Oc1c(C(F)(F)F)ncn(Cc2cc(-c3ccc(F)cc3)c(=O)[nH]n2)c1=O` [Example 168, 5-fluoro-3-((1-((5-(4-fluorophenyl)-6-oxo-1,6-dihydropyridazin-3-yl)methyl)-6-oxo-4-(trifluoromethyl)-1,6-dihydropyrimidin-5-yl)oxy)-2-methylbenzonitrile], the half-inhibitory concentration (IC50) in data set [1] was determined as 5 nM.
On the same count and under the same terms, with `Cc1ncn(Cc2cc(-c3ccc(F)cc3)c(=O)[nH]n2)c(=O)c1Oc1cc(Cl)cc(C#N)c1` [Example 169, 3-chloro-5-((1-((5-(4-fluorophenyl)-6-oxo-1,6-dihydropyridazin-3-yl)methyl)-4-methyl-6-oxo-1,6-dihydropyrimidin-5-yl)oxy)benzonitrile] the figure was 4 nM; with `CC(F)(F)c1ncn(Cc2cc(-c3ccc(F)cc3)c(=O)[nH]n2)c(=O)c1Oc1cc(Cl)cc(C#N)c1` [Example 170, 3-chloro-5-((4-(1,1-difluoroethyl)-1-((5-(4-fluorophenyl)-6-oxo-1,6-dihydropyridazin-3-yl)methyl)-6-oxo-1,6-dihydropyrimidin-5-yl)oxy)benzonitrile], 5 nM; with `CC(F)(F)c1ncn(Cc2cc(-c3ccc(F)cc3)c(=O)[nH]n2)c(=O)c1Oc1cccc(C#N)c1F` [Example 171, 3-((4-(1,1-difluoroethyl)-1-((5-(4-fluorophenyl)-6-oxo-1,6-dihydropyridazin-3-yl)methyl)-6-oxo-1,6-dihydropyrimidin-5-yl)oxy)-2-fluorobenzonitrile], 3 nM.
Take `N#Cc1cc(Cl)cc(Oc2c(C(F)(F)F)ccn(Cc3cc(C(F)F)n[nH]c3=O)c2=O)c1` [Example 172, 3-chloro-5-((1-((6-(difluoromethyl)-3-oxo-2,3-dihydropyridazin-4-yl)methyl)-2-oxo-4-(trifluoromethyl)-1,2-dihydropyridin-3-yl)oxy)benzonitrile]: the IC50 in data set [1] turned out to be 5 nM.
As for `N#Cc1cc(Cl)cc(Oc2c(C(F)F)ncn(Cc3cc(C(F)F)n[nH]c3=O)c2=O)c1` [Example 173, 3-chloro-5-((4-(difluoromethyl)-1-((6-(difluoromethyl)-3-oxo-2,3-dihydropyridazin-4-yl)methyl)-6-oxo-1,6-dihydropyrimidin-5-yl)oxy)benzonitrile], in data set [1], the half-maximal inhibitory concentration (IC50) was found to be 6 nM.
On the same count and under the same terms, with `N#Cc1cccc(Oc2c(C(F)(F)F)ncn(Cc3cc(C(F)F)n[nH]c3=O)c2=O)c1F` [Example 174, 3-((1-((6-(difluoromethyl)-3-oxo-2,3-dihydropyridazin-4-yl)methyl)-6-oxo-4-(trifluoromethyl)-1,6-dihydropyrimidin-5-yl)oxy)-2-fluorobenzonitrile] the figure was 5 nM; with `CC(F)(F)c1ncn(Cc2cc(C(F)F)n[nH]c2=O)c(=O)c1Oc1cc(Cl)cc(C#N)c1` [Example 175, 3-chloro-5-((4-(1,1-difluoroethyl)-1-((6-(difluoromethyl)-3-oxo-2,3-dihydropyridazin-4-yl)methyl)-6-oxo-1,6-dihydropyrimidin-5-yl)oxy)benzonitrile], 3 nM.
With `Cc1ncn(Cc2cc(C(F)F)n[nH]c2=O)c(=O)c1Oc1cc(Cl)cc(C#N)c1` [Example 176, 3-chloro-5-((1-((6-(difluoromethyl)-3-oxo-2,3-dihydropyridazin-4-yl)methyl)-4-methyl-6-oxo-1,6-dihydropyrimidin-5-yl)oxy)benzonitrile], in data set [1], the IC50 is 6 nM.
On the same count and under the same terms, with `CC(F)(F)c1ncn(Cc2cc(C(F)F)n[nH]c2=O)c(=O)c1Oc1cccc(C#N)c1F` [Example 177, 3-((4-(1,1-difluoroethyl)-1-((6-(difluoromethyl)-3-oxo-2,3-dihydropyridazin-4-yl)methyl)-6-oxo-1,6-dihydropyrimidin-5-yl)oxy)-2-fluorobenzonitrile] the figure was 17 nM.
On the same count and under the same terms, the result for `CC(F)(F)c1cc(Cn2cnc(C(F)(F)F)c(Oc3cccc(C#N)c3F)c2=O)c(=O)[nH]n1` [Example 178, 3-((1-((6-(1,1-difluoroethyl)-3-oxo-2,3-dihydropyridazin-4-yl)methyl)-6-oxo-4-(trifluoromethyl)-1,6-dihydropyrimidin-5-yl)oxy)-2-fluorobenzonitrile] reads 9 nM; that for `CC(F)(F)c1cc(Cn2cnc(C(F)F)c(Oc3cc(Cl)cc(C#N)c3)c2=O)c(=O)[nH]n1` [Example 179, 3-chloro-5-((1-((6-(1,1-difluoroethyl)-3-oxo-2,3-dihydropyridazin-4-yl)methyl)-4-(difluoromethyl)-6-oxo-1,6-dihydropyrimidin-5-yl)oxy)benzonitrile], 8 nM.
On to `CC(F)(F)c1cc(Cn2cnc(C(C)(F)F)c(Oc3cc(Cl)cc(C#N)c3)c2=O)c(=O)[nH]n1` [Example 180, 3-chloro-5-((4-(1,1-difluoroethyl)-1-((6-(1,1-difluoroethyl)-3-oxo-2,3-dihydropyridazin-4-yl)methyl)-6-oxo-1,6-dihydropyrimidin-5-yl)oxy)benzonitrile], for which the IC50 in data set [1] came out at 5 nM.
Still for that read-out and setting: with `Cc1ncn(Cc2cc(C(C)(F)F)n[nH]c2=O)c(=O)c1Oc1cc(Cl)cc(C#N)c1` [Example 181, 3-chloro-5-((1-((6-(1,1-difluoroethyl)-3-oxo-2,3-dihydropyridazin-4-yl)methyl)-4-methyl-6-oxo-1,6-dihydropyrimidin-5-yl)oxy)benzonitrile] the figure was 12 nM; with `CC(F)(F)c1cc(Cn2cnc(C(C)(F)F)c(Oc3cccc(C#N)c3F)c2=O)c(=O)[nH]n1` [Example 182, 3-((4-(1,1-difluoroethyl)-1-((6-(1,1-difluoroethyl)-3-oxo-2,3-dihydropyridazin-4-yl)methyl)-6-oxo-1,6-dihydropyrimidin-5-yl)oxy)-2-fluorobenzonitrile], 9 nM.

The values are drawn from patent publication US9718819B2 (Merck Sharp & Dohme Corp., priority 2012, dated 2017).
